Tests used:
Mus musculus [1] = test: Increase in ceramide content in hairless mouse skin at 1% v/v administered topically after 4 weeks relative to vehicle treated control; type: functional
Mus musculus [2] = test: Increase in ceramide content in hairless mouse skin at 1% w/v administered topically after 30 hrs relative to vehicle treated control; type: functional
Homo sapiens [3] = test: Increase in ceramide content in human skin at 2% administered topically after 4 weeks relative to vehicle treated control; type: functional
Keratinocyte [4] = test: Increase in ceramide content in keratinocytes at […] after 24 hrs relative to vehicle treated control; type: functional
Homo sapiens [5] = test: Increase in ceramide content in human skin at 4% administered topically after 4 weeks relative to vehicle treated control; type: functional
Keratinocyte [6] = test: Increase in ceramide content in normal human keratinocytes at 1 to 30 uM after 6 days relative to vehicle treated control; type: functional
[7] = Upregulation of SPTLCB1 mRNA expression in neonatal human foreskin keratinocytes at 10 uM after 4 days relative to vehicle treated control; type: functional, cell-based; conditions: Keratinocyte
[8] = Upregulation of SPTLCB2 mRNA expression in neonatal human foreskin keratinocytes at 10 uM after 4 days relative to vehicle treated control; type: functional, cell-based; conditions: Keratinocyte
Keratinocyte [9] = test: Increase in ceramide content in keratinocytes at 1% after 6 days relative to vehicle treated control; type: functional
Homo sapiens [10] = test: Increase in ceramide content in human skin at 0.3 to 1% administered topically after 11 days relative to vehicle treated control; type: functional

Question: Which “fold change (FC)” value (Mus musculus [1]) does the source give for CCO[C@H]1O[C@H](CO)[C@@H](O)[C@H](O)[C@H]1O here?
Answer: 1.1

Question: With O=C1CCCCCCCCCCCC(=O)OCCO1 as the compound, how does the “fold change (FC)” value (Mus musculus [2]) read?
Answer: 1.3

Question: What does the source list for CC(O)C(=O)O (configuration not stated) [LACTIC ACID]?
Answer: fold change (FC) (Homo sapiens [3]): 1.4; fold change (FC) (Keratinocyte [4]): 4.3; fold change (FC) (Homo sapiens [5]): 1.4

Question: Which “fold change (FC)” value (Homo sapiens [3]) does the source give for NC(=O)c1cccnc1 [NIACINAMIDE] here?
Answer: 1.4

Question: And the “fold change (FC)” value (Keratinocyte [6])?
Answer: 4.1

Question: And the “fold change (FC)” value (Homo sapiens [5])?
Answer: 1.4

Question: And the fold change (FC) [7]?
Answer: 1.8

Question: And the fold change (FC) [8]?
Answer: 1.8

Question: With C[C@H]1[C@H](C)CC[C@]2(C(=O)O)CC[C@]3(C)C(=CC[C@@H]4[C@@]5(C)CC[C@H](O)C(C)(C)[C@@H]5CC[C@]43C)[C@H]12 [URSOLIC ACID] as the compound, how does the “fold change (FC)” value (Keratinocyte [9]) read?
Answer: 2.2

Question: What about the “fold change (FC)” value (Homo sapiens [10]) of the same compound?
Answer: 1.3
